Experimental data published in PubChem BioAssay (NCI).
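Growth conditions: 96-well plates. Treatment: test compound, 48 hours, 5 concentrations. Analysis: linear interpolation between bracketing concentrations; unreached endpoints set to highest concentration. Definition used: TGI = concentration required for complete inhibition of growth.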

Columns and labels:
Assay in all cases: NCI anticancer screen, dose series, 48 h
DMS 114 small cell lung = test system: DMS 114 small cell lung
SK-MEL-5 melanoma = test system: SK-MEL-5 melanoma
EKVX NSCLC = test system: EKVX NSCLC
CCRF-CEM leukemia = test system: CCRF-CEM leukemia
NCI-H460 lung = test system: NCI-H460 lung
UO-31 renal = test system: UO-31 renal
DLD-1 colon = test system: DLD-1 colon
NCI-H23 lung = test system: NCI-H23 lung
RXF-631 renal = test system: RXF-631 renal
SK-MEL-2 melanoma = test system: SK-MEL-2 melanoma
XF 498 CNS = test system: XF 498 CNS
RPMI-8226 leukemia = test system: RPMI-8226 leukemia
SNB-19 CNS = test system: SNB-19 CNS
IGROV1 ovarian = test system: IGROV1 ovarian
TK-10 renal = test system: TK-10 renal
A498 renal = test system: A498 renal
HOP-18 NSCLC = test system: HOP-18 NSCLC
HOP-62 NSCLC = test system: HOP-62 NSCLC
CAKI-1 renal = test system: CAKI-1 renal
KM12 colon = test system: KM12 colon
OVCAR-3 ovarian = test system: OVCAR-3 ovarian
SK-MEL-28 melanoma = test system: SK-MEL-28 melanoma
MOLT-4 leukemia = test system: MOLT-4 leukemia
HOP-92 NSCLC = test system: HOP-92 NSCLC
RXF 393 renal = test system: RXF 393 renal
786-0 renal = test system: 786-0 renal
MALME-3M melanoma = test system: MALME-3M melanoma
SF-539 CNS = test system: SF-539 CNS
LXFL 529 NSCLC = test system: LXFL 529 NSCLC
NCI-H522 lung = test system: NCI-H522 lung
SNB-75 CNS = test system: SNB-75 CNS
COLO 205 colon = test system: COLO 205 colon
ACHN renal = test system: ACHN renal
UACC-257 melanoma = test system: UACC-257 melanoma
OVCAR-4 ovarian = test system: OVCAR-4 ovarian
A549 NSCLC = test system: A549 NSCLC
HCC-2998 colon = test system: HCC-2998 colon
DMS 273 small cell lung = test system: DMS 273 small cell lung
U251 CNS = test system: U251 CNS
HT29 colon = test system: HT29 colon
HCT-116 colon = test system: HCT-116 colon
OVCAR-5 ovarian = test system: OVCAR-5 ovarian
SW-620 colon = test system: SW-620 colon
OVCAR-8 ovarian = test system: OVCAR-8 ovarian
K-562 leukemia = test system: K-562 leukemia
SN12C renal = test system: SN12C renal
SK-OV-3 ovarian = test system: SK-OV-3 ovarian
HL-60(TB) leukemia = test system: HL-60(TB) leukemia
SNB-78 CNS = test system: SNB-78 CNS
SF-295 CNS = test system: SF-295 CNS
UACC-62 melanoma = test system: UACC-62 melanoma
M19-MEL melanoma = test system: M19-MEL melanoma
KM20L2 colon = test system: KM20L2 colon
SF-268 CNS = test system: SF-268 CNS
HCT-15 colon = test system: HCT-15 colon
NCI-H226 lung = test system: NCI-H226 lung
LOX IMVI melanoma = test system: LOX IMVI melanoma
M14 melanoma = test system: M14 melanoma

`CC(=O)OC1C(O[C@H]2CC[C@]34O[C@]35CC[C@]3(C)C(C6(C)CC[C@@H](C(C)(C)O)O6)[C@@H](O)CC3(C)[C@@H]5CC(OC3OC(CO)C(O)C(O)C3O)C4C2(C)C)OCC(O)C1O` (stereo partly drawn) showed a TGI (DMS 114 small cell lung) of over 100 µM, a TGI (SK-MEL-5 melanoma) of over 100 µM and a TGI (EKVX NSCLC) of over 100 µM. It also gave a TGI (CCRF-CEM leukemia) of over 31.6 µM, a TGI (NCI-H460 lung) of over 100 µM and a TGI (UO-31 renal) of over 100 µM. The TGI (DLD-1 colon) was over 100 µM, the TGI (NCI-H23 lung) was over 100 µM and the TGI (RXF-631 renal) was over 100 µM. The TGI (SK-MEL-2 melanoma) was over 100 µM, the TGI (XF 498 CNS) was over 100 µM and the TGI (RPMI-8226 leukemia) was over 71.3 µM. For the same compound, the TGI (SNB-19 CNS) was over 100 µM, the TGI (IGROV1 ovarian) was over 100 µM and the TGI (TK-10 renal) was over 100 µM. For the same compound, the TGI (A498 renal) was over 100 µM, the TGI (HOP-18 NSCLC) was over 100 µM and the TGI (HOP-62 NSCLC) was over 100 µM. For the same compound, the TGI (CAKI-1 renal) was over 100 µM, the TGI (KM12 colon) was over 100 µM and the TGI (OVCAR-3 ovarian) was over 100 µM. For the same compound, the TGI (SK-MEL-28 melanoma) was over 100 µM, the TGI (MOLT-4 leukemia) was over 100 µM and the TGI (HOP-92 NSCLC) was over 100 µM. For the same compound, the TGI (RXF 393 renal) was over 100 µM, the TGI (786-0 renal) was over 60.9 µM and the TGI (MALME-3M melanoma) was over 100 µM. The TGI (SF-539 CNS) was over 56.6 µM, the TGI (LXFL 529 NSCLC) was over 100 µM and the TGI (NCI-H522 lung) was over 100 µM. The TGI (SNB-75 CNS) was over 100 µM, the TGI (COLO 205 colon) was over 73.8 µM and the TGI (ACHN renal) was over 100 µM. For the same compound, the TGI (UACC-257 melanoma) was over 100 µM, the TGI (OVCAR-4 ovarian) was over 100 µM and the TGI (A549 NSCLC) was over 100 µM. For the same compound, the TGI (HCC-2998 colon) was over 100 µM, the TGI (DMS 273 small cell lung) was over 61.2 µM and the TGI (U251 CNS) was over 100 µM. For the same compound, the TGI (HT29 colon) was over 100 µM, the TGI (HCT-116 colon) was over 100 µM and the TGI (OVCAR-5 ovarian) was over 100 µM. The TGI (SW-620 colon) was over 49.3 µM, the TGI (OVCAR-8 ovarian) was over 100 µM and the TGI (K-562 leukemia) was over 74.8 µM. It also gave a TGI (SN12C renal) of over 100 µM, a TGI (SK-OV-3 ovarian) of over 100 µM and a TGI (HL-60(TB) leukemia) of over 53.3 µM. The TGI (SNB-78 CNS) was over 100 µM, the TGI (SF-295 CNS) was over 100 µM and the TGI (UACC-62 melanoma) was over 100 µM. For the same compound, the TGI (M19-MEL melanoma) was over 100 µM, the TGI (KM20L2 colon) was over 100 µM and the TGI (SF-268 CNS) was over 100 µM. For the same compound, the TGI (HCT-15 colon) was over 57.8 µM, the TGI (NCI-H226 lung) was over 100 µM and the TGI (LOX IMVI melanoma) was over 59.3 µM. It also gave a TGI (M14 melanoma) of over 100 µM.
